In ChEMBL document CHEMBL3045125, “Isolation and Insecticidal Activity of Three Acetogenins from Seeds of Pond Apple, Annona glabra L” (1991):
Active and inactive are the calls of the source. The rule behind the calls is not given here.

Assays:
Tetranychus urticae = experiment: Insecticidal activity against adult of Tetranychus urticae (two-spotted spider mite) in kidney bean leaf assessed as egg hatching ability after 1 week; assay type: functional, organism-based
Nephotettix cincticeps = experiment: Insecticidal activity against 2nd-instar nymphs of Nephotettix cincticeps (green rice leafhopper) in rice seedlings assessed as lethality at 10 mg/ml after 1 week; assay type: functional, organism-based
[1] = system: Henosepilachna vigintioctopunctata; experiment: Insecticidal activity against second-instar larvae of Henosepilachna vigintioctopunctata assessed as lethality at 10 mg/ml measured everyday for 1 week; assay type: functional, organism-based
Crocidolomia = experiment: Insecticidal activity against second-instar larvae of Crocidolomia binotalis in cabbage leaf assessed as growth inhibition at 10 mg/ml after 2 days; assay type: functional, organism-based
Plutella xylostella = experiment: Insecticidal activity against 2nd-instar larvae of Plutella xylostella (diamondback moth) in cabbage leaf assessed as lethality and growth inhibition at 0.1 mg/ml after 2 days; assay type: functional, organism-based
Mamestra brassicae = experiment: Insecticidal activity against third-instar larvae of Mamestra brassicae in cabbage leaf assessed as feeding deterrent and growth inhibition at 10 mg/ml after 2 days; assay type: functional, organism-based
Callosobruchus chinensis [2] = experiment: Insecticidal activity against adult of Callosobruchus chinensis assessed as mortality at 5 ug/insect applied topically after 24 hr relative to control; assay type: functional
Callosobruchus chinensis [3] = experiment: Insecticidal activity against adult of Callosobruchus chinensis assessed as mortality at 1 ug/insect applied topically after 24 hr relative to control; assay type: functional
Callosobruchus chinensis [4] = experiment: Insecticidal activity against adult of Callosobruchus chinensis assessed as mortality at 0.5 ug/insect applied topically after 24 hr relative to control; assay type: functional
Callosobruchus chinensis [5] = experiment: Insecticidal activity against adult of Callosobruchus chinensis assessed as mortality at 0.1 ug/insect applied topically after 24 hr relative to control; assay type: functional

Row | SMILES | Activity (Tetranychus urticae) | Activity (Nephotettix cincticeps) | Activity [1] | Activity (Crocidolomia) | Activity (Plutella xylostella) | Activity (Mamestra brassicae) | Activity (Callosobruchus chinensis [2]) [%] | Activity (Callosobruchus chinensis [3]) [%] | Activity (Callosobruchus chinensis [4]) [%] | Activity (Callosobruchus chinensis [5]) [%]
1 | CCCCCC[C@H](O)CCC[C@H](O)[C@H]1CC[C@H]([C@H]2CC[C@H]([C@H](O)CCCCCCCCCCCCC3=C[C@H](C)OC3=O)O2)O1 [SQUAMOCIN] | inactive | Active | Active | Active | Active | Active | 90 | 29 | 20 | 0
2 | CCCCCCCCCCC(O)C1CCC(C2CCC(C(O)CCCCCCCC[C@H](O)CC3=C[C@@H](C)OC3=O)O2)O1 (stereo partly drawn) [ASIMICIN] |  |  |  |  |  |  | 100 | 85 | 60 | 15
3 | CCCCCCCCCC[C@H](O)[C@H]1CC[C@H]([C@H]2CC[C@H]([C@H](O)CCCCCCCCCCCCC3=C[C@H](C)OC3=O)O2)O1 [BULLANIN] |  |  |  |  |  |  | 90 | 25 | 10 | 0
